In US20150105252A1, “SUBSTITUTED PYRAZOLES AS HERBICIDES” (E I DU PONT DE NEMOURS AND COMPANY, priority 2013, published 2015):

What was measured:
mustard, black = experiment: Test E preemergence; assay type: in vivo, Brassica nigra; conditions: 21 days, scale 0 to 100
Text: (§1) Seeds of plant species selected from bermudagrass (Cynodon dactylon), Surinam grass (Brachiaria decumbens), crabgrass, large (large crabgrass, Digitaria sanguinalis), crabgrass, naked (naked crabgrass, Digitaria nuda), foxtail, green (green foxtail, Setaria viridis), johnsongrass (Sorghum halepense), kochia (Kochia scoparia), morningglory (pitted morningglory, Ipomoea lacunosa), nutsedge, purple (purple nutsedge, Cyperus rotundus), ragweed (common ragweed, Ambrosia elation), mustard, black (black mustard, Brassica nigra), guineagrass (Panicum maximum), dallisgrass (Paspalum dilatatum), barnyardgrass (Echinochloa crus-galli), sandbur (southern sandbur, Cenchrus echinatus), sowthistle (common sowthistle, Sonchus oleraceous), ryegrass, Italian (Italian ryegrass, Lolium multiflorum), signalgrass (broadleaf signalgrass, Brachiaria platyphylla), dayflower, VA (Virginia (VA) dayflower, Commelina virginica), bluegrass (annual bluegrass, Poa annua), quackgrass (Elytrigia repens), mallow (common mallow, Malva sylvestris), buckwheat, wild (wild buckwheat, Polygonum convolvulus), leafy spurge (Euphorbia esula), common chickweed (Stellaria media), wild poinsettia (Euphorbia heterophylla), pigweed, palmer (palmer pigweed, Amaranthus palmeri), and pigweed (redroot pigweed, Amaranthus retroflexus) were planted into a blend of loam soil and sand and treated preemergence with test chemicals formulated in a non-phytotoxic solvent mixture which included a surfactant.
(§2) Treated plants and controls were maintained in a greenhouse for 21 days, after which time all species were compared to controls and visually evaluated. Plant response ratings, summarized in Table E, are based on a scale of 0 to 100 where 0 is no effect and 100 is complete control. A dash (-) response means no test result.

barnyardgrass = experiment: Test E preemergence; assay type: in vivo, Echinochloa crus-galli; conditions: 21 days, scale 0 to 100
Text: as §1, §2

buckwheat, wild = experiment: Test E preemergence; assay type: in vivo, Polygonum convolvulus; conditions: 21 days, scale 0 to 100
Text: as §1, §2

fall panicum = experiment: Test F postemergence; assay type: in vivo, Panicum dichotomiflorum; conditions: scale 0 to 100
Text: (§3) Seeds of plant species selected from corn (Zea mays), soybean (Glycine max), velvetleaf (Abutilon theophrasti), lambsquarters (Chenopodium album), wild poinsettia (Euphorbia heterophylla), pigweed, palmer (palmer pigweed, Amaranthus palmeri), common waterhemp (Amaranthus rudis), surinam grass (Brachiaria decumbens), large crabgrass (Digitaria sanguinalis), crabgrass, Brazil (Brazilian crabgrass, Digitaria horizontalis), fall panicum (Panicum dichotomiflorum), giant foxtail (Setaria faberii), green foxtail (Setaria viridis), goosegrass (Eleusine indica), johnsongrass (Sorghum halepense), common ragweed (Ambrosia elation), barnyardgrass (Echinochloa crus-galli), southern sandbur (Cenchrus echinatus), arrowleaf sida (Sida rhombifolia), Italian ryegrass (Lolium multiflorum), dayflower, VA (Virginia (VA) dayflower, Commelina virginica), field bindweed (Convolvulus arvensis), cocklebur (common cocklebur, Xanthium strumarium), morningglory (Ipomoea coccinea), nightshade (eastern black nightshade, Solanum ptycanthum), kochia (Kochia scoparia), yellow nutsedge (Cyperus esculentus), and hairy beggarticks (Bidens pilosa), were planted into a silt loam soil and treated preemergence with test chemicals formulated in a non-phytotoxic solvent mixture which included a surfactant.
(§4) At the same time, plants from these crop and weed species and also horseweed (Canada horseweed, Conyza canadensis), smartweed (ladysthumb smartweed, Polygonum persicaria), waterhemp_RES1, (ALS & Triazine resistant common waterhemp, Amaranthus rudis), and waterhemp_RES2, (ALS & HPPD resistant common waterhemp, Amaranthus rudis) were treated with postemergence applications of test chemicals formulated in the same manner. Plants ranged in height from 2 to 18 cm for postemergence treatments (1- to 4-leaf stage). Treated plants and controls were maintained in a greenhouse for 14 to 21 days, after which time all species were compared to controls and visually evaluated. Plant response ratings, summarized in Table F, are based on a scale of 0 to 100 where 0 is no effect and 100 is complete control. A dash (-) response means no test result.

common ragweed = experiment: Test F postemergence; assay type: in vivo, Ambrosia elation; conditions: scale 0 to 100
Text: as §3, §4

common waterhemp = experiment: Test F postemergence; assay type: in vivo, Amaranthus rudis; conditions: scale 0 to 100
Text: as §3, §4

[1] = test system: waterhemp_RES1 (ALS & Triazine resistant common waterhemp); experiment: Test F postemergence; assay type: in vivo, Amaranthus rudis; conditions: scale 0 to 100
Text: as §3, §4

[2] = test system: waterhemp_RES2 (ALS & HPPD resistant common waterhemp); experiment: Test F postemergence; assay type: in vivo, Amaranthus rudis; conditions: scale 0 to 100
Text: as §3, §4

SMILES | Plant response rating, Mustard, Black (mustard, black; 16 g ai/ha) | Plant response rating, Mustard, Black (mustard, black; 31 g ai/ha) | Plant response rating, Mustard, Black (mustard, black; 62 g ai/ha) | Plant response rating, Mustard, Black (mustard, black; 125 g ai/ha) | Plant response rating, Mustard, Black (mustard, black; 250 g ai/ha) | Plant response rating, Barnyardgrass (barnyardgrass; 16 g ai/ha) | Plant response rating, Barnyardgrass (barnyardgrass; 31 g ai/ha) | Plant response rating, Barnyardgrass (barnyardgrass; 62 g ai/ha) | Plant response rating, Barnyardgrass (barnyardgrass; 125 g ai/ha) | Plant response rating, Barnyardgrass (barnyardgrass; 250 g ai/ha) | Plant response rating, Buckwheat, Wild (buckwheat, wild; 16 g ai/ha) | Plant response rating, Buckwheat, Wild (buckwheat, wild; 31 g ai/ha) | Plant response rating, Buckwheat, Wild (buckwheat, wild; 62 g ai/ha) | Plant response rating, Buckwheat, Wild (buckwheat, wild; 125 g ai/ha) | Plant response rating, Buckwheat, Wild (buckwheat, wild; 250 g ai/ha) | Plant response rating, Fall Panicum (fall panicum; Postemergence, 31 g ai/ha) | Plant response rating, Fall Panicum (fall panicum; Postemergence, 125 g ai/ha) | Plant response rating, Fall Panicum (fall panicum; Postemergence, 250 g ai/ha) | Plant response rating, Fall Panicum (fall panicum; postemergence, 62 g ai/ha) | Plant response rating, Fall Panicum (fall panicum; postemergence, 500 g ai/ha) | also measured
CCc1cc(C(=O)NCC(F)(F)F)nn1Cc1ccnc(C(F)(F)F)c1 [Compound 78, 5-ethyl-N-(2,2,2-trifluoroethyl)-1-[[(2-trifluoromethyl)-4-pyridinyl]methyl]-1H-pyrazole-3-carboxamide] | 70 | 100 | 100 | 100 | 100 | 35 | 95 | 100 | 100 | 100 | 60 | 100 | 100 | 100 | 100 | 10 | 50 | 90 | 20 | 95 | Plant response rating, Common Ragweed (common ragweed; Postemergence, 31 g ai/ha): 65; Plant response rating, Common Ragweed (common ragweed; Postemergence, 125 g ai/ha): 70; Plant response rating, Common Ragweed (common ragweed; Postemergence, 250 g ai/ha): 80; Plant response rating, Common Ragweed (common ragweed; postemergence, 62 g ai/ha): 50; Plant response rating, Common Ragweed (common ragweed; postemergence, 500 g ai/ha): 95; Plant response rating, Common Waterhemp (common waterhemp; Postemergence, 31 g ai/ha): 70; Plant response rating, Common Waterhemp (common waterhemp; Postemergence, 125 g ai/ha): 75; Plant response rating, Common Waterhemp (common waterhemp; Postemergence, 250 g ai/ha): 70; Plant response rating, Common Waterhemp (common waterhemp; postemergence, 62 g ai/ha): 60; Plant response rating, Common Waterhemp (common waterhemp; postemergence, 500 g ai/ha): 98; Plant response rating, Waterhemp_RES1 ([1]; Postemergence, 31 g ai/ha): 60; Plant response rating, Waterhemp_RES1 ([1]; Postemergence, 125 g ai/ha): 60; Plant response rating, Waterhemp_RES1 ([1]; Postemergence, 250 g ai/ha): 65; Plant response rating, Waterhemp_RES1 ([1]; postemergence, 62 g ai/ha): 70; Plant response rating, Waterhemp_RES1 ([1]; postemergence, 500 g ai/ha): 100; Plant response rating, Waterhemp_RES2 ([2]; Postemergence, 31 g ai/ha): 60; Plant response rating, Waterhemp_RES2 ([2]; Postemergence, 125 g ai/ha): 70; Plant response rating, Waterhemp_RES2 ([2]; Postemergence, 250 g ai/ha): 75; Plant response rating, Waterhemp_RES2 ([2]; postemergence, 62 g ai/ha): 65; Plant response rating, Waterhemp_RES2 ([2]; postemergence, 500 g ai/ha): 95
CCc1cc(C(=O)NC(C)C)nn1Cc1ccnc(C(F)(F)F)c1 [Compound 103] | 100 | 100 | 100 | 100 | 100 | 90 | 100 | 100 | 100 | 100 | 95 | 100 | 100 | 100 | 100 |  |  |  |  |  | 
CCOc1cc(C(=O)NCC(F)(F)F)nn1Cc1ccnc(C(F)(F)F)c1 [Compound 104] | 100 | 100 | 100 | 100 | 100 | 95 | 100 | 100 | 100 | 100 | 100 | 100 | 100 | 100 | 100 | 10 | 50 | 80 | 40 | 90 | Plant response rating, Common Ragweed (common ragweed; Postemergence, 31 g ai/ha): 40; Plant response rating, Common Ragweed (common ragweed; Postemergence, 125 g ai/ha): 70; Plant response rating, Common Ragweed (common ragweed; Postemergence, 250 g ai/ha): 98; Plant response rating, Common Ragweed (common ragweed; postemergence, 62 g ai/ha): 50; Plant response rating, Common Ragweed (common ragweed; postemergence, 500 g ai/ha): 98; Plant response rating, Common Waterhemp (common waterhemp; Postemergence, 31 g ai/ha): 75; Plant response rating, Common Waterhemp (common waterhemp; Postemergence, 125 g ai/ha): 85; Plant response rating, Common Waterhemp (common waterhemp; Postemergence, 250 g ai/ha): 85; Plant response rating, Common Waterhemp (common waterhemp; postemergence, 62 g ai/ha): 80; Plant response rating, Common Waterhemp (common waterhemp; postemergence, 500 g ai/ha): 90; Plant response rating, Waterhemp_RES1 ([1]; Postemergence, 31 g ai/ha): 70; Plant response rating, Waterhemp_RES1 ([1]; Postemergence, 125 g ai/ha): 90; Plant response rating, Waterhemp_RES1 ([1]; Postemergence, 250 g ai/ha): 75; Plant response rating, Waterhemp_RES1 ([1]; postemergence, 62 g ai/ha): 75; Plant response rating, Waterhemp_RES1 ([1]; postemergence, 500 g ai/ha): 85; Plant response rating, Waterhemp_RES2 ([2]; Postemergence, 31 g ai/ha): 80; Plant response rating, Waterhemp_RES2 ([2]; Postemergence, 125 g ai/ha): 95; Plant response rating, Waterhemp_RES2 ([2]; Postemergence, 250 g ai/ha): 80; Plant response rating, Waterhemp_RES2 ([2]; postemergence, 62 g ai/ha): 80; Plant response rating, Waterhemp_RES2 ([2]; postemergence, 500 g ai/ha): 85
CCOc1cc(C(=O)NC(C)C)nn1Cc1ccnc(C(F)(F)F)c1 [Compound 188] |  |  |  |  |  |  |  |  |  |  |  |  |  |  |  | 20 | 55 | 75 | 20 | 90 | Plant response rating, Common Ragweed (common ragweed; Postemergence, 31 g ai/ha): 50; Plant response rating, Common Ragweed (common ragweed; Postemergence, 125 g ai/ha): 70; Plant response rating, Common Ragweed (common ragweed; Postemergence, 250 g ai/ha): 85; Plant response rating, Common Ragweed (common ragweed; postemergence, 62 g ai/ha): 60; Plant response rating, Common Ragweed (common ragweed; postemergence, 500 g ai/ha): 98; Plant response rating, Common Waterhemp (common waterhemp; Postemergence, 31 g ai/ha): 60; Plant response rating, Common Waterhemp (common waterhemp; Postemergence, 125 g ai/ha): 80; Plant response rating, Common Waterhemp (common waterhemp; Postemergence, 250 g ai/ha): 80; Plant response rating, Common Waterhemp (common waterhemp; postemergence, 62 g ai/ha): 70; Plant response rating, Common Waterhemp (common waterhemp; postemergence, 500 g ai/ha): 90; Plant response rating, Waterhemp_RES1 ([1]; Postemergence, 31 g ai/ha): 60; Plant response rating, Waterhemp_RES1 ([1]; Postemergence, 125 g ai/ha): 50; Plant response rating, Waterhemp_RES1 ([1]; Postemergence, 250 g ai/ha): 80; Plant response rating, Waterhemp_RES1 ([1]; postemergence, 62 g ai/ha): 70; Plant response rating, Waterhemp_RES1 ([1]; postemergence, 500 g ai/ha): 85; Plant response rating, Waterhemp_RES2 ([2]; Postemergence, 31 g ai/ha): 65; Plant response rating, Waterhemp_RES2 ([2]; Postemergence, 125 g ai/ha): 50; Plant response rating, Waterhemp_RES2 ([2]; Postemergence, 250 g ai/ha): 50; Plant response rating, Waterhemp_RES2 ([2]; postemergence, 62 g ai/ha): 70; Plant response rating, Waterhemp_RES2 ([2]; postemergence, 500 g ai/ha): 60
CCOc1cc(C(=O)NC2CC2)nn1Cc1ccnc(C(F)(F)F)c1 [Compound 189] | 100 | 100 | 100 |  |  | 35 | 100 | 100 |  |  | 100 | 100 | 100 |  |  |  |  |  |  |  | Plant response rating, Mustard, Black (mustard, black; 4 g ai/ha): 95; Plant response rating, Mustard, Black (mustard, black; 8 g ai/ha): 98; Plant response rating, Barnyardgrass (barnyardgrass; 4 g ai/ha): 0; Plant response rating, Barnyardgrass (barnyardgrass; 8 g ai/ha): 0; Plant response rating, Buckwheat, Wild (buckwheat, wild; 4 g ai/ha): 70; Plant response rating, Buckwheat, Wild (buckwheat, wild; 8 g ai/ha): 100
